Data: patent EP0588799B1, “NEW SULPHONAMIDES, PROCESS FOR PREPARING THE SAME AND MEDICAMENTS CONTAINING THESE COMPOUNDS” (BOEHRINGER MANNHEIM GMBH, priority 1991, dated 1992)

Legend:
[1] = tested on: P 388 D.1 Makrophagen; experiment: Inhibition of cholesterol ester formation in macrophages (after Huber et al.); type: cell-based; settings: P 388 D.1 macrophages; for Hemmung der Cholesterinesterbildung in Macro- (P388D.1): 18 h incubation, F-10 medium + 1 µM Cu(II) + 50 µg/ml LDL + 5 % FCS, test concentration not given
Method: Hemmung der Cholesterinesterbildung in Makrophagen (nach Huber et al. (1990) Free Rad. Res. Comms. 8, 167-173)
Humanplasma-LDL wurde durch sequentielle Ultrazentrifugation bei präselekierten Dichten aus dem Plasma gesunder männlicher Nichtraucher isoliert und für 5 h bei 37° C in F-10 Medium + 1µM Cu(II) zur Depletion seiner lipophilen Antioxidantien inkubiert. Die Bildung von Cholesterinestern in P 388 D.1 Makrophagen unter Einfluß von konditioniertem human Plasma-LDL wurde nach 18 h Inkubation der Zellen (2 x 10^6/ml) in F-10 Medium + 1 µM Cu(II) + 50 µg/ml LDL + 5 % FCS nach Extraktion der Neutral fette dünnschichtchromatographisch gemessen.

[2] = tested on: Plasma-LDL; experiment: Stabilisation of plasma LDL: prolongation of the lag phase of Cu(II)-induced oxidation (diene formation at A 234); type: biochemical, human; settings: for Stabilisierung v. Plasma LDL: Verlängerung der "lag-Phase": 3 molecules test substance per LDL particle, LDL 125 µg protein/ml, 10 µM CuCl2, pH 8, 42° C
Method: Stabilisierung von Plasma-LDL (nach Huber et al. (1990) Free Rad. Res. Comms. 8, 167-173)
LDL (125 µg Protein/ml) wurde in 20 mM Tris-Cl pH 8, 150 mM NaCl, 10 µM CuCl2 mit und ohne Testverbindung (gelöst in Äthanol, Äthanolendkonzentration 0,5 %) bei 42° C oxidiert. Es wurden jeweils 3 Moleküle Testsubstanz pro LDL-Partikel eingesetzt. Die Oxidation wurde kontinuierlich photometrisch bei A 234 durch die Messung der Dienbildung verfolgt. Die sogenannte "lag Phase" ist als dasjenige Zeitintervall definiert, das sich aus dem Schnittpunkt der Tangente der Kurve während der Propagationsreaktion der Lipidperoxidation und der Zeitachse ergibt.

Structure (SMILES) | Hemmung der Cholesterinesterbildung in Macro- (P388D.1) [1] | Stabilisierung v. Plasma LDL: Verlängerung der "lag-Phase" [2] | Hemmung der Chol-ester-bildung ([1]; reference substance, 10 /uM, n=7) | verlängern die lag-Phase von LDL ([2]; reference substance, 3 molecules/LDL particle)
CC(C)(C)c1cc(S(=O)(=O)NCc2ccccc2)cc(C(C)(C)C)c1O [1b).2, (3,5-Di-^tbutyl-4-hydroxy)benzolsulfo-benzylamid] | -73,0 | 8 | – | –
Cc1cc(C(C)(C)C)c(O)c(S(=O)(=O)NCc2ccccc2)c1 [Beispiel 2.2, (3-^tButyl-2-hydroxy-5-methyl)benzolsulfo-benzylamid] | -64.1 | – | – | –
CC(C)(C)c1cc(NS(=O)(=O)c2cc(C(C)(C)C)c(O)c(C(C)(C)C)c2)cc(C(C)(C)C)c1O [Beispiel 3.10] | -77.4 | – | – | –
CC(C)(C)c1cc(CNS(=O)(=O)c2cc(C(C)(C)C)c(O)c(C(C)(C)C)c2)cc(C(C)(C)C)c1O [Beispiel 3.11] | -66.7 | 79 | – | –
CC(C)(C)c1cc(CCNS(=O)(=O)c2cc(C(C)(C)C)c(O)c(C(C)(C)C)c2)cc(C(C)(C)C)c1O [Beispiel 3.12] | -63.4 | – | – | –
CC(C)(C)c1cc(CCCNS(=O)(=O)c2cc(C(C)(C)C)c(O)c(C(C)(C)C)c2)cc(C(C)(C)C)c1O [Beispiel 3.13] | -72.6 | – | – | –
CC(C)(Sc1cc(C(C)(C)C)c(O)c(C(C)(C)C)c1)Sc1cc(C(C)(C)C)c(O)c(C(C)(C)C)c1 [Probucol, reference compound] | – | – | 25-42% | 10%
